Here are results for three compounds from patent US20020173491A1, “DAPD combination therapy with inosine monophosphate dehydrogenase inhibitor” (priority 2000, published 2002).

Read-outs that look alike come from different tables or passages of the source.

The term Ki denotes a measure of affinity in units of concentration, obtained from inhibition or displacement. By CC50 is commonly meant the concentration giving 50% cytotoxicity. A high value points to better tolerance by the cells. For orientation: EC50 means the concentration at which the effect is half-maximal.

In data set [1] the target is HIV reverse transcriptase (HIV-RT) (Human immunodeficiency virus type 1 group M subtype B, UniProt P04585). As to conditions: cited from earlier work.
Data set [2] is described as follows: XTT based cytotoxicity assay, MT2. As to conditions: human, MT2 T-cell line, MT2 cells. The procedure: The XTT (2,3-bis(2-methoxy-4-nitro-5-sulfoxyphenyl)-5[(phenylamino)carbonyl]-2H-tetrazolium hydroxide) assay is an in vitro colorimetric cyto-protection assay. Reduction of XTT by mitochondria dehydrogenases results in the cleavage of the tetrazolium ring of XTT, yielding orange formazan crystals, which are soluble in aqueous solution. The resultant orange solution was read in a spectrophotometer at a wavelength of 450nm. […] Cells were added to the plat at 3×10^4/well (MTX) and 2×10^5/well (PBMC) and the plates were incubated for 5 days at 37° C. in a 5% CO2 incubator (addition of the cells to the plate diluted the compound to a final high concentration of 1 mM). At the end of the 5-day incubation, XTT was added to each well and incubated at 37° C. for 3 hours followed by the addition of acidified isopropanol. The plate was read at 450 nm in a 96 well plate reader. A dose response curve was generated using the absorption values of cells grown in the absence of compound as 100% protection.
MPA was tested for cytotoxicity on the laboratory adapted T-cell line MT2 and in PBMCs using a XTT based assay. […] The resultant orange solution is read in a spectrophotometer at a wavelength of 450nm. […] The plate was read at 450 nm in a 96 well plate reader. […]
(Formazan colour is commonly taken as a measure of viable cells.)

Data set [3] can be described thus: XTT based cytotoxicity assay, PBMC. The class given is cell-based. Particulars: human, PBMCs.
Protocol: The XTT (2,3-bis(2-methoxy-4-nitro-5-sulfoxyphenyl)-5[(phenylamino)carbonyl]-2H-tetrazolium hydroxide) assay is an in vitro colorimetric cyto-protection assay. Reduction of XTT by mitochondria dehydrogenases results in the cleavage of the tetrazolium ring of XTT, yielding orange formazan crystals, which are soluble in aqueous solution. […] Cells were added to the plat at 3×10^4/well (MTX) and 2×10^5/well (PBMC) and the plates were incubated for 5 days at 37° C. in a 5% CO2 incubator (addition of the cells to the plate diluted the compound to a final high concentration of 1 mM). At the end of the 5-day incubation, XTT was added to each well and incubated at 37° C. for 3 hours followed by the addition of acidified isopropanol. The plate was read at 450 nm in a 96 well plate reader. A dose response curve was generated using the absorption values of cells grown in the absence of compound as 100% protection.
The XTT (2,3-bis(2-methoxy-4-nitro-5-sulfophenyl)-5[(phenylamino)carbonyl]-2H-tetrazolium hydroxide) assay is an in vitro colorimetric cyto-protection assay. Reduction of XTT by mitochondria dehydrogenases results in the cleavage of the tetrazolium ring of XTT, yielding orange formazan crystals, which are soluble in aqueous solution. […] The plate was read at 450 nm in a 96 well plate reader. […]
The test system of data set [4] is xxLAI strain of HIV-1. The data set is described as follows: microbe, parasite or virus in culture. The class given is cell-based. As to conditions: compound alone, any of the concentrations tested (RBV up to 100 μM, MPA up to 1 μM). The procedure: Triplicate samples of compound were tested. MT2 cells were infected with xxLAI at a multiplicity of infection (MOI) of 0.03 for 3 hours at 37° C. in 5% CO2. The infected cells were plated at 3.0×10^4/well into a 96 well plated containing drug dilutions and incubated for 5 days at 37° C. in CO2. […] This method has been modified into a susceptibility assay and has been used in a variety of in vitro antiviral tests and is readily adaptable to any system with a lytic virus (Weislow, O. S., et. al. 1989). Using the absorption values of the cell controls as 100% protection and no drug, virus infected cells as 0% protection, a dose response curve is generated by plotting % protection on the Y axis and drug concentration on the X axis. From this curve EC50 values were determined.
Assays were performed in the MT2 cell line as described above in the XXT sensitivity assay section.
MPA was tested for activity against the xxLAI strain of HIV-1 in the laboratory adapted cell line MT2. Dilutions of MPA were made in cell culture media in a 96 well plate; the highest concentration tested was 1 μM. Triplicate samples of compound were tested. MT2 cells were infected with xxLAI at a multiplicity of infection (MOI) of 0.03 for 3 hours at 37° C. in 5% CO2. The infected cells were plated at 3.0×10^4/well into a 96 well plated containing drug dilutions and incubated for 5 days at 37° C. in CO2. The antiviral activity of MPA was determined using the XTT assay described above. This method has been modified into a susceptibility assay and has been used in a variety of in vitro antiviral tests and is readily adaptable to any system with a lytic virus (Weislow, O. S., et. al. 1989). Using the absorption values of the cell controls as 100% protection and no drug, virus infected cells as 0% protection, a dose response curve is generated by plotting % protection on the Y axis and drug concentration on the X axis. From this curve EC50 values were determined.
The concentrations of MPA used were 1, 0.5, 0.25, 0.1, and 0.01 μM. Assays were performed in the MT2 cell line as described in section 3.1.

The subject of data set [5] is xxLAI strain of HIV-1. The data set is described as follows: microbe, parasite or virus in culture. In kind it is cell-based. Particulars: Human immunodeficiency virus 1, PBMC, 72 h. The procedure: In this assay, cell supernatants were incubated on microelisa wells coated with antibodies to HIV-1 p24 core antigen. Subsequently, anti-HIV-1 conjugate labeled with horseradish peroxidase was added. The labeled antibody bound to the solid phase antibody/antigen complexes previously formed. Addition of the tetramethylbenzidine substrate results in blue color formation. The color turned yellow when the reaction is stopped. The plates were then analyzed on a plate reader set at 490 nm. The absorbance is a direct measurement of the amount of HIV-1 produced in each well and a decrease in color indicates decreased viral production. […] PBMC were obtained from HIV-1 negative donors by banding on Ficoll gradients, stimulated with phytohemaglutinin (PHAP) for 48 hours prior to infection with HIV-1, and infected with virus for 4 hours at 37° C. at a MOI of 0.001. […] Plates were incubated for 3 days at 37° C. The concentration of virus in each well was determined using the NEN p24 assay. Using the absorption values of the cell controls as 100% protection and drug free, virus infected cells as 0% protection, a dose response curve is generated by plotting percent protection on the Y axis and drug concentration on the X axis. From this curve, EC50 values were determined.
Compound dilutions and assay conditions were as described above.
MPA was also tested for activity against the xxLAI strain of HIV-1 in PBMCs using a p24 based Elisa assay. In this assay, cell supernatants are incubated on microelisa wells coated with antibodies to HIV-1 p24 core antigen. Subsequently, anti-HIV-1 conjugate labeled with horse radish peroxidase is added. The labeled antibody binds to the solid phase antibody/antigen complexes previously formed. Addition of the tetramethylbenzidine substrate results in blue color formation. The color turns yellow when the reaction is stopped. The plates are then analyzed on a plate reader set at 490 nm. The absorbance is a direct measurement of the amount of HIV-1 produced in each well and a decrease in color indicates decreased viral production. Dilutions of MPA were made in cell culture media in a 96 well plate, the highest concentration of MPA tested was 1 μM. PBMC were obtained from HIV-1 negative donors by banding on Ficoll gradients, stimulated with phytohemaglutinin (PHAP) for 48 hours prior to infection with HIV-1, and infected with virus for 4 hours at 37° C. at a MOI of 0.001. Infected cells were seeded into 96 well plates containing 4-fold serial dilutions of MPA. Plates were incubated for 3 days at 37° C. The concentration of virus in each well was determined using the NEN p24 assay. Using the absorption values of the cell controls as 100% protection and drug free, virus infected cells as 0% protection, a dose response curve is generated by plotting % protection on the Y axis and drug concentration on the X axis. From this curve EC50 values were determined.
Compound dilutions and assay conditions were as described above. The concentrations of MPA used were 1, 0.5, 0.25, 0.1, and 0.01 μM.

The test system of data set [6] is HCV. Particulars: ribavirin alone; cited from earlier work.
Where [7] appears, read: read-out: EC50, HIV-1 replication in PBMCs, compound alone, p24, 3 days.

Turning to `Nc1nc2c(ncn2C2COC(COP(=O)(O)OP(=O)(O)OP(=O)(O)O)O2)c(=O)[nH]1` (stereo not drawn) [DXG-TP], in data set [1], the Ki was 0.019 µM.
For the compound `NC(=O)c1ncn([C@@H]2O[C@H](CO)[C@@H](O)[C@H]2O)n1` [RBV, 1-β-D-ribofuranosyl-1,2,4-triazole-3-carboxamide], the cytotoxic concentration (CC50) at 5 days in data set [2] is over 1000 µM. Besides, the 50% cytotoxic concentration (CC50) at 5 days in data set [3] was over 1000 µM. In addition, in data set [4], the “activity against HIV-1 in MT2 cells” value is reported as “not active”. In addition, in data set [5] (setting [7]), the EC50 is 20.5 µM. Besides, in data set [6], the “effect on serum levels of HCV-RNA” value is “does not lower” and the “patients with serum amino transferase levels reduced to normal” value was 40%.
With `COc1c(C)c2c(c(O)c1C/C=C(\C)CCC(=O)O)C(=O)OC2` [MPA, 6-(4-hydroxy-6-methoxy-7-methyl-3-oxo-5-phthalanyl)-4-methyl-4-hexanoic acid], the values for the CC50 at 5 days in data set [2] and in data set [3] were 5.7 µM and 4.5 µM, respectively. Further, the “activity against HIV-1 in MT2 cells” value in data set [4] is given as “not active”. The EC50 in data set [5] (setting [7]) was 0.095 µM; in data set [5] (read-out: median EC50, HIV-1 replication in PBMCs, compound alone, p24, 3 days) it was 0.095 µM.
